Values joined by “and” are separate entries in the source; they are usually repeats but may differ in a detail not shown here. Equal entries are not always repeated.
Tested on: 292921-168-R-J2-PDC complex spheroid growth
Test: Anticancer human tumor 292921-168-R-J2-PDC patient-derived pancreatic carcinoma cell line growth inhibition [AhR]
Settings: for viability, T/C: stronger effect = lower value
Outline: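 Complex tumor spheroids co-cultured with HUVEC and human MSC stroma; AhR antagonists tested in combination with standard-of-care and investigational agents. Top concentration at or near clinical Cmax (else 10 microM), half-log dilutions; growth expressed as percent test/control.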

[1] = curve of first compound, second compound 0.1 µM
[2] = curve of first compound, second compound 0.316 µM
[3] = curve of first compound, second compound 1 µM
[4] = curve of first compound, second compound 3.16 µM
[5] = curve of first compound, second compound 10 µM
[6] = second compound 0.1 µM, first compound 0.0316 µM
[7] = second compound 0.1 µM, first compound 0.1 µM
[8] = second compound 0.1 µM, first compound 0.316 µM
[9] = second compound 0.1 µM, first compound 1 µM
[10] = second compound 0.1 µM, first compound 3.16 µM
[11] = second compound 0.1 µM, first compound 10 µM
[12] = second compound 0.316 µM, first compound 0.0316 µM
[13] = second compound 0.316 µM, first compound 0.1 µM
[14] = second compound 0.316 µM, first compound 0.316 µM
[15] = second compound 0.316 µM, first compound 1 µM
[16] = second compound 0.316 µM, first compound 3.16 µM
[17] = second compound 0.316 µM, first compound 10 µM
[18] = second compound 1 µM, first compound 0.0316 µM
[19] = second compound 1 µM, first compound 0.1 µM
[20] = second compound 1 µM, first compound 0.316 µM
[21] = second compound 1 µM, first compound 1 µM
[22] = second compound 1 µM, first compound 3.16 µM
[23] = second compound 1 µM, first compound 10 µM
[24] = second compound 3.16 µM, first compound 0.0316 µM
[25] = second compound 3.16 µM, first compound 0.1 µM
[26] = second compound 3.16 µM, first compound 0.316 µM
[27] = second compound 3.16 µM, first compound 1 µM
[28] = second compound 3.16 µM, first compound 3.16 µM
[29] = second compound 3.16 µM, first compound 10 µM
[30] = second compound 10 µM, first compound 0.0316 µM
[31] = second compound 10 µM, first compound 0.1 µM
[32] = second compound 10 µM, first compound 0.316 µM
[33] = second compound 10 µM, first compound 1 µM
[34] = second compound 10 µM, first compound 3.16 µM
[35] = second compound 10 µM, first compound 10 µM
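Further: spheroids exposed to compounds for seven days after three days of growth.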

Structure (SMILES) | IC50 [1] [µM] | IC50 [2] [µM] | IC50 [3] [µM] | IC50 [4] [µM] | IC50 [5] [µM] | viability, T/C [6] [%] | viability, T/C [7] [%] | viability, T/C [8] [%] | viability, T/C [9] [%] | viability, T/C [10] [%] | viability, T/C [11] [%] | viability, T/C [12] [%] | viability, T/C [13] [%] | viability, T/C [14] [%] | viability, T/C [15] [%] | viability, T/C [16] [%] | viability, T/C [17] [%] | viability, T/C [18] [%] | viability, T/C [19] [%] | viability, T/C [20] [%] | further results
CC1COCCN1c1cc(C2(S(C)(=N)=O)CC2)nc(-c2ccnc3[nH]ccc23)n1 (configuration not stated) + Cc1ccccc1N=Nc1ccc(NC(=O)c2ccnn2C)c(C)c1 | 2.76 | 2.52 | 2.08 | 1.81 | 1.48 | 89.7 | 96 | 93.9 | 83.1 | 45.6 | 21 | 98.8 | 84.3 | 88.3 | 79.5 | 42.6 | 24.4 | 86.4 | 83.7 | 85.4 | viability, T/C [21]: 69.8%; viability, T/C [22]: 38.6%; viability, T/C [23]: 19.2%; viability, T/C [24]: 80%; viability, T/C [25]: 78.8%; viability, T/C [26]: 68%; viability, T/C [27]: 65.6%; viability, T/C [28]: 37.4%; viability, T/C [29]: 16.7%; viability, T/C [30]: 66.9%; viability, T/C [31]: 55.7%; viability, T/C [32]: 58.2%; viability, T/C [33]: 58.3%; viability, T/C [34]: 34.3%; viability, T/C [35]: 21.5%
CCN(c1cc(-c2ccc(CN3CCOCC3)cc2)cc(C(=O)NCc2c(C)cc(C)[nH]c2=O)c1C)C1CCOCC1 | – | – | – | – | – | – | – | – | – | – | – | – | – | – | – | – | – | – | – | – | viability, T/C (compound 0.00949 µM): 98.8% and 103% and 105%; viability, T/C (compound 0.03 µM): 106% and 107% and 104%; viability, T/C (compound 0.0949 µM): 109% and 96.8% and 96.2%; viability, T/C (compound 0.3 µM): 100% and 97.3% and 98.5%; viability, T/C (compound 0.949 µM): 99.8% and 89.8% and 102%; viability, T/C (compound 3 µM): 93.2% and 91% and 90.2%; IC50 (curve of compound): > 3 µM
CC1(C)CCC(CN2CCN(c3ccc(C(=O)NS(=O)(=O)c4ccc(NCC5CCOCC5)c([N+](=O)[O-])c4)c(Oc4cnc5[nH]ccc5c4)c3)CC2)=C(c2ccc(Cl)cc2)C1 + Cc1ccccc1N=Nc1ccc(NC(=O)c2ccnn2C)c(C)c1 | 6.35 | 6.29 | 6.07 | 5.51 | 4.73 | 91.2 | 90.5 | 109 | 103 | 112 | 16.8 | 88.3 | 89.3 | 97.4 | 96 | 108 | 19 | 96.8 | 101 | 77.8 | viability, T/C [21]: 95.1%; viability, T/C [22]: 100%; viability, T/C [23]: 16.2%; viability, T/C [24]: 79.8%; viability, T/C [25]: 77.3%; viability, T/C [26]: 75.3%; viability, T/C [27]: 84%; viability, T/C [28]: 96.4%; viability, T/C [29]: 15.1%; viability, T/C [30]: 65.4%; viability, T/C [31]: 63.5%; viability, T/C [32]: 53.9%; viability, T/C [33]: 72.5%; viability, T/C [34]: 77.6%; viability, T/C [35]: 19.3%
COc1ccc([C@@H](O)c2cc(-c3ncnc4cc(N5CCOCC5)ccc34)c(F)cc2Cl)nn1 + Cc1cncc(-c2nc(NCCc3c[nH]c4ccccc34)c3ncn(C(C)C)c3n2)c1 | 2.03 | 1.63 | 1.39 | 0.607 | < 0.0316 | 81.6 | 85.2 | 68.8 | 67.2 | 39.9 | 25.8 | 80.6 | 78.2 | 81 | 59.7 | 36.3 | 26.2 | 77.7 | 79 | 62.4 | viability, T/C [21]: 58.7%; viability, T/C [22]: 36.3%; viability, T/C [23]: 26%; viability, T/C [24]: 67.1%; viability, T/C [25]: 58.5%; viability, T/C [26]: 63.7%; viability, T/C [27]: 40.2%; viability, T/C [28]: 32.7%; viability, T/C [29]: 23.1%; viability, T/C [30]: 42.7%; viability, T/C [31]: 39.5%; viability, T/C [32]: 42.2%; viability, T/C [33]: 32.3%; viability, T/C [34]: 25.2%; viability, T/C [35]: 20.5%

— PubChem BioAssay AID1918994 (Molecular Pharmacology Branch, DTP, NCI, 2023)
